Data from patent US20240109914A1, “IMIDAZOTHIAZOLE COMPOUNDS AND ANALOGS THEREOF AND METHODS FOR TREATING NEMATODE INFECTIONS IN PLANTS” (The Governing Council of The University of Toronto, priority 2021, published 2024).
Where two headings read alike, the source gives them in different places.

Assays:
[1] = tested on: M. hapla eggs; assay: Meloidogyne hapla in vitro egg hatch assay; format: in vivo; conditions: 45 μM; for Number of Hatched Eggs: 8 days at room temperature, about 90 eggs per well, tested once; for Number of Hatched Eggs z-score: 8 days, z-score vs 8 untreated DMSO wells
Description: The M. hapla were originally obtained from a soil sample of muck soil from Ste-Clotilde, Quebec, Canada. Using tweezers, egg masses were carefully removed from root material from infested carrot roots. Eggs were liberated from the egg masses using a mild sodium hypochlorite bleaching protocol, whereby egg masses were bleached with a 10% commercial bleach (sodium hypochlorite) solution for 4 minutes with vigorous shaking, and then washed 5 times with deionized water. 50 μL of deionized water was added to each well of two 96-well polystyrene culture plates, and 0.5 μL of chemical (or DMSO alone) was added to each well. Approximately 90 eggs were added to each well in 49.5 ul of deionized water. The plates were sealed with parafilm and incubated for 8 days at room temperature without shaking in a Tupperware box filled with wet paper towels. After the 8-day incubation, the number of hatched eggs was counted for each treatment and for the untreated controls. Each chemical treatment was tested only once. 8 separate untreated DMSO controls were included in the experiment. The z-score for each treatment was calculated using the mean and standard deviation of the untreated DMSO control wells.

[2] = tested on: C. elegans; assay: C. elegans dose-response (viability, minimum lethal concentration); format: in vivo, Caenorhabditis elegans; conditions: Caenorhabditis elegans, 72 h, L1 worms, 3 days at 20° C.
Description: Forty microliters of an HB101 E. coli bacterial suspension in liquid NGM (nematode growth media—see ref. 42 for the recipe) was added to each well of a 96-well flat-bottom culture plate, after which approximately 25 synchronized L1 worms, in 10 μl of M9 buffer (see ref. 43 for the recipe), were added to each well. The synchronized L1 worms were obtained from an embryo preparation performed the previous day (see ref. 43 for the protocol). For the L1 assays, 0.5 μl of test compound solution (or DMSO alone) was immediately added to the wells using a multichannel pipette; the final DMSO concentration is 1% (v/v). The worms were incubated for 3 days at 20° C. and the number of viable animals was counted.
At least three biological replicates were performed for each dose-response assay. For each biological replicate, two technical replicates were performed and the numbers of viable animals for each technical replicate were combined (i.e. ˜ 50 worms assayed per concentration). The number of viable worms at each concentration was divided by the corresponding DMSO control value to give the “relative viability” for each concentration. The “relative viability” values were then averaged across the biological replicates. Minimum lethal concentration was defined as the lowest concentration at which at least 20% of worms die.

[3] = tested on: M. incognita J2 larvae; assay: Meloidogyne incognita in vitro larval mobility assay; format: in vivo; conditions: 45 μM, 4 days; for Replicate 1 z-score / Replicate 2 z-score: z-score vs untreated DMSO wells; for pest or weed control at 45 µM: Meloidogyne incognita, 96 h
Description: M. incognita (Kofoid & White) Chitwood Race 1 (originally isolated in Maryland) was used for all experiments, and was maintained on pepper (Capsicum annuum L.) cv. PA-136 in a greenhouse as previously described^44. Infective J2 juveniles were collected as described in ref. 45. The microwell dose-response experiments were carried out similarly to previously described protocols^44,46. In brief, 50 μL of deionized water was added to the wells of 96-well polystyrene plates and 0.5 μL of test compound (or DMSO alone) was added to each well. Approximately 35 J2s were then added to each well in 49.5 μL of deionized water. The chemicals were tested at 45 μM, and the final concentration of DMSO in each well was 0.5% (v/v). DMSO alone was added to 3 separate wells. The plates were covered with plastic adhesive strips, and the lids of the plates were sealed with parafilm. The plates were incubated at 25° C. without shaking for 4 days. The percent of worms that were immobile (% immobile) was quantified by counting the number of immobile worms after 4 days of incubation, dividing the number of immobile worms by the total number of worms in the well, and then multiplying by 100. Two replicates were performed for each treatment. The z-score for each treatment was calculated using the mean and standard deviation of the untreated DMSO control wells. The average % immobile value was calculated across the two replicates. A test compound was considered most promising if the z-score was greater than 1.645 in both replicates.

[4] = tested on: tomato plants; assay: Root mass of tomato plants in the soil infectivity assay; conditions: 45 μM in soil, 8 weeks
Description: For the infectivity assays, 90 grams of soil (1:1 sand:loam mix) was added to each cell of several 6-cell plastic garden packs. The soil was drenched with 18 mL of deionized water containing dissolved test compound or DMSO alone. 2,500 infective J2 juveniles were then added to the soil in 2 mL of deionized water, for a total water volume of 20 mL. […] The DMSO concentration varied from 0.1% to 0.8% (v/v) depending on the stock concentration of the test compound. The highest DMSO concentration was used as the DMSO control. The J2s were incubated in the soil and chemical for 24 hours, after which two- to three-week old tomato seedlings were transplanted into the soil (one plant per cell). Two replicates were performed for each chemical treatment, and four replicates were done for the DMSO controls. The whole experiment was replicated twice, in two different batches on two different days, for a total of four replicates for each test compound treatment, and eight replicates for the DMSO controls. Inoculated plants were grown for 8 weeks in a greenhouse, as described^47, under long-day conditions (16-h photoperiod) with 26/18° C. day/night temperatures. After 8 weeks, the plants were destructively harvested. The tops were removed and discarded, and roots were gently washed with water to remove adhering soil. Eggs were extracted by placing rinsed roots in 0.6% sodium hypochlorite and agitating at 300 rpm for 3 min. Roots were then rinsed over nested 250—and 25.4-μm sieves, with eggs collected from the latter and suspended in water. Roots were dried in a 65° C. oven for at least 24 hours, after which dry roots were weighed. The number of eggs from each plant root was counted on a dissection microscope using a haemocytometer, and the number of eggs per milligram of root was calculated by dividing the total egg number by the mass of the dried root material. An average was taken across the replicates performed on the same day, and then normalized to the DMSO control average. […] An average percent effectiveness value was then calculated across the two different batches carried out on different days.

[5] = tested on: M. incognita; assay: Meloidogyne incognita infectivity assay (soil, tomato roots); format: in vivo; conditions: Meloidogyne incognita, 1344 h, 45 μM in soil, 8 weeks, eggs per mg root relative to DMSO control, read-out: % effectiveness at inhibiting reproduction of M. incognita
Source text: An M. incognita population originally collected from grape (Vitis vinifera) in Parlier, California, was used for all experiments, and they were maintained on tomato plants (Solanum lycopersicum ‘Rutgers’) as previously described^47. Infective J2 juveniles were collected as described in ref. 47.

[6] = lowest concentration at which at least 20% of worms die, read-out: Minimum Lethal Concentration
[7] = same values in ppm, read-out: Minimum Lethal Concentration (ppm)
[8] = average of the two replicates, read-out: Average % Immobile
[9] = replicate 1, read-out: Replicate 1 % Immobile
[10] = replicate 2, read-out: Replicate 2 % Immobile

Structure (SMILES) | Number of Hatched Eggs [1] | Number of Hatched Eggs z-score [1] | minimal effective concentration [2, 6] [µM] | minimal effective concentration [2, 7] [µg/mL] | Replicate 1 z-score ([3]; replicate 1) | Replicate 2 z-score ([3]; replicate 2) | pest or weed control at 45 µM [3, 8] [%] | pest or weed control at 45 µM [3, 9] [%] | pest or weed control at 45 µM [3, 10] [%] | Normalized root mass (relative to DMSO control) [4] | pest or weed control at 45 µM [5] [%]
Ic1ccccc1-c1cn2ccsc2n1 [I-43] | 4 | [3.31] | 50 | 16.3 | – | – | – | – | – | – | –
CCc1ccc(-c2cn3c(C)csc3n2)cc1 [I-9] | 2 | [3.97] | 100 | 24.2 | – | – | – | – | – | – | –
Cc1ccc(-c2nc3sccn3c2C)cc1 [I-3] | – | – | > 100 | > 22.8 | [6.94] | [2.76] | 40.8 | 56.7 | 25 | – | –
Cc1cn2cc(-c3ccccc3Br)nc2s1 [I-41] | – | – | > 100 | > 29.3 | [3.31] | [6.62] | 42.6 | 38.9 | 46.3 | 1.18 | 6.6
Cc1cn2cc(-c3cccc(Br)c3)nc2s1 [I-37] | – | – | > 100 | > 29.3 | – | – | – | – | – | 1.31 | 21.6
Fc1ccccc1-c1cn2ccsc2n1 [I-18] | – | – | – | – | – | – | – | – | – | 1.13 | 0
Clc1cccc(-c2cn3ccsc3n2)c1 [I-23] | 1 | [4.30] | 100 | 23.5 | [14.66] | [13.61] | ≥ 75 | 94.4 | 85 | – | –
Ic1cccc(-c2cn3ccsc3n2)c1 [I-42] | – | – | 25 | 8.2 | [5.89] | [11.03] | 61.1 | 51.5 | 70.7 | – | –
Cc1csc2nc(-c3cccc(Br)c3)cn12 [I-36] | – | – | > 100 | > 29.3 | – | – | – | – | – | – | –
Cc1ccc(-c2cn3c(C)csc3n2)cc1 [I-4] | 4 | [3.31] | 100 | 22.8 | – | – | – | – | – | – | –
Cc1csc2nc(-c3ccccc3F)cn12 [I-20] | – | – | > 100 | > 23.2 | – | – | – | – | – | – | –
Brc1cccc(-c2cn3ccsc3n2)c1 [I-34] | 1 | [4.30] | 50 | 14 | [15.00] | [14.11] | ≥ 75 | 96.1 | 87.8 | – | –
Cc1csc2nc(-c3cccc(F)c3)cn12 [I-16] | – | – | > 100 | > 23.2 | – | – | – | – | – | 1.15 | 0
Cc1csc2nc(-c3ccccc3Br)cn12 [I-40] | – | – | > 100 | > 29.3 | – | – | – | – | – | – | –
CCc1cccc(-c2cn3ccsc3n2)c1 [I-11] | 3 | [3.64] | 100 | 22.8 | – | – | – | – | – | – | –
CCc1ccc(-c2nc3sccn3c2C)cc1 [I-8] | – | – | 50 | 12.1 | – | – | – | – | – | – | –

Structure (SMILES) | Number of Hatched Eggs [1] | Number of Hatched Eggs z-score [1] | minimal effective concentration [2, 6] [µM] | minimal effective concentration [2, 7] [µg/mL] | Replicate 1 z-score ([3]; replicate 1) | Replicate 2 z-score ([3]; replicate 2) | pest or weed control at 45 µM [3, 8] [%] | pest or weed control at 45 µM [3, 9] [%] | pest or weed control at 45 µM [3, 10] [%] | Normalized root mass (relative to DMSO control) [4] | pest or weed control at 45 µM [5] [%]
Clc1ccc(-c2cn3ccsc3n2)c(Cl)c1 [I-32] | – | – | 6.25 | 1.7 | – | – | – | – | – | 1.31 | 4.4
Cc1ccc(-c2cn3ccsc3n2)cc1 [I-2] | – | – | 50 | 14.8 | [14.54] | [6.03] | 68.5 | 93.8 | 43.1 | – | –
c1ccc(-c2nc3sccn3n2)cc1 [I-116] | 2 | [3.97] | – | – | [4.40] | [2.43] | 33.7 | 44.2 | 23.2 | – | –
Clc1ccc(-c2cn3c(n2)SCC3)cc1 [I-49] | 2 | [3.97] | – | – | [15.80] | [16.33] | – | 100 | 100 | – | –
Nc1ccc(-c2cn3ccsc3n2)cc1 [I-44] | – | – | > 100 | > 21.5 | – | – | – | – | – | – | –
FC(F)(F)Oc1ccc(-c2cn3ccsc3n2)cc1 [I-61] | 1 | [4.30] | – | – | [8.86] | [6.94] | 57.1 | 66 | 48.1 | – | –
FC(F)Oc1ccc(-c2cn3ccsc3n2)cc1 [I-63] | 2 | [3.97] | – | – | [15.80] | [16.33] | – | 100 | 100 | – | –
Cc1ccc(-c2cn3ccsc3n2)cc1C [I-6] | – | – | > 100 | > 22.8 | [4.25] | [3.22] | 35.5 | 43.5 | 27.6 | – | –
Cc1c(-c2cccc(F)c2)nc2sccn12 [I-15] | – | – | > 100 | > 23.2 | – | – | – | – | – | 1.35 | 5.8
CC(C)(C)c1ccc(-c2cn3ccsc3n2)cc1 [I-12] | – | – | 100 | 25.6 | – | – | – | – | – | – | –
Cc1ccc(-c2cn3cc(C)sc3n2)cc1 [I-5] | – | – | 25 | 5.7 | – | – | – | – | – | – | –
Cc1c(-c2ccccc2F)nc2sccn12 [I-19] | – | – | > 100 | > 23.2 | – | – | – | – | – | 1.27 | 16.6
Cc1c(-c2ccccc2Br)nc2sccn12 [I-39] | – | – | > 100 | > 29.3 | – | – | – | – | – | – | –
Brc1ccccc1-c1cn2ccsc2n1 [I-38] | – | – | 100 | 27.9 | – | – | – | – | – | 1.21 | 0
Cc1c(-c2ccccc2Cl)nc2sccn12 [I-28] | – | – | > 100 | > 24.9 | – | – | – | – | – | 1.37 | 17.4
